Experimental data published in patent US20160058759A1, “GLUTAMINASE INHIBITOR THERAPY” (Board of Regents, The University of Texas System, priority 2014, published 2016).

Experiments:
[1] = test system: NRF2/KEAP1 mutant NSCLC cell lines; assay: Glutathione level after GLS inhibitors; type: cell-based
Description: Cells were allowed to settle and attach overnight. Cells plated in triplicate for each concentration and control examined. […] Cells were incubated with compound or relevant controls for 24 hours. On Day 2, 24 hours after treatment, cells were analyzed by GSH-Glo (PromegaV6912) per manufacturer's instructions. Plates were read in luminescence mode on a PheraStarFS plate reader. Duplicate wells were plated and then stained with crystal violet in order to correct for differences in cell growth as described below.

[2] = test system: NRF2/KEAP1 mutant NSCLC cell lines; assay: ROS after GLS inhibitors; type: cell-based
Description: One day prior to the experiment, A549 cells were seeded in 6 well dishes (250,000 cells per well). The day of the experiment, cells were treated with 0.01% DMSO or 1 μM IACS-011393 for 24 hours. The following day, an allocated well was treated with hydrogen peroxide for 20-30 minutes as a positive control for ROS generation. All wells were then stained with CM-H2DCFDA (5 μM, Life Technologies) for 30 minutes at 37° C., washed with 1× PBS, harvested by trypsinization, and re-suspended in 400 μl phenol-free RPMI medium. Cells were strained through a […] cell strainer and analyzed using a flow cytometer (LSR Fortessa).

| SMILES | glutathione [1] | ROS [2] |
| --- | --- | --- |
| O=C(Cc1ccccc1)Nc1nnc(CCSCCc2nnc(NC(=O)Cc3ccccc3)s2)s1 [BPTES, N,N′-(5,5′-(2,2′-thiobis(ethane-2,1-diyl))bis(1,3,4-thiadiazole-5,2-diyl))bis(2-phenylacetamide)] | reduction in glutathione | increase in ROS |
| O=C(Cc1cccc(OC(F)(F)F)c1)Nc1ccc(CCCCc2nnc(NC(=O)Cc3ccccn3)s2)nn1 [CB-839, 2-(pyridin-2-yl)-N-{5-[4-(6-{2-[3-(trifluoromethoxy)phenyl]acetamido}pyridazin-3-yl)butyl]-1,3,4-thiadiazol-2-yl}acetamide] | reduction in glutathione | increase in ROS |
| O=C(Cc1ccccn1)Nc1nnc(CCS(=O)(=O)CCc2nnc(NC(=O)Cc3ccccn3)s2)s1 [compound 13, N,N′-(5,5′-(2,2′-sulfonylbis(ethane-2,1-diyl))bis(1,3,4-thiadiazole-5,2-diyl))bis(2-(pyridin-2-yl)acetamide)] | reduction in glutathione | increase in ROS |
